Assay results reported in patent publication US20240067668A1, “HETEROARYL DERIVATIVE COMPOUND AND USE THEREOF” (VORONOI INC., priority 2020, published 2024).

Key:
[1] = biological target: EGFR Del19/T790M/C797S (Homo sapiens, UniProt P00533, C797S/T790M, form not given); assay: Enzyme IC50, EGFR Del19/T790M/C797S; assay type: biochemical
[2] = test system: BaF3-EGFR (WT) cells; assay: Inhibitory activity on Ba/F3 cell proliferation (CellTiter-Glo, 72 hours); assay type: cell-based; settings: Ba/F3 cells expressing EGFR WT
Procedure: (§1) The following experiments were performed to evaluate the inhibitory activity of the compound represented by Chemical Formula 1 according to the present invention on the proliferation of Ba/F3 cells expressing EGFR mutants.
(§2) BaF3-EGFR (WT) and BaF3-EGFR (Del19/T790M/C797S) cells were seeded in a clear bottom white 96-well plate at a density of 3×10^3/100 μl/well, and then 0.5 μl/well of the culture medium, containing the compounds at 12 concentrations (0.00001-2 mM) serially diluted in 3 folds and the DMSO control, was added to a final concentration of 0.00005-10 μM, followed by culturing in a 37° C. CO2 incubator for 72 hours. After 72 hours, the plates treated with the compounds were taken out, treated with 100 μl/well of CellTiter-Glo® 2.0 Assay (Promega) solution, and mixed well. After mixing well at room temperature for about 10 minutes, […] was measured using a microplate reader. As to Data, GI50 (μM) values were calculated using GraphPad Prism 8.3.0 (GraphPad software Inc., San Diego) as percentages in proportion to vehicle-based treated cells. The result values were calculated as a cell growth rate (%) compared to the control group. A graph was created using the GraphPad Prism version 5.0 program, and GI50 (μM) values were calculated.

[3] = test system: BaF3-EGFR (Del19/T790M/C797S) cells; assay: as above; assay type: cell-based; settings: Ba/F3 cells expressing EGFR Del19/T790M/C797S
Procedure: as §1, §2

Sequence of EGFR Del19/T790M/C797S (P00533 25-1210 T790M/C797S, form open): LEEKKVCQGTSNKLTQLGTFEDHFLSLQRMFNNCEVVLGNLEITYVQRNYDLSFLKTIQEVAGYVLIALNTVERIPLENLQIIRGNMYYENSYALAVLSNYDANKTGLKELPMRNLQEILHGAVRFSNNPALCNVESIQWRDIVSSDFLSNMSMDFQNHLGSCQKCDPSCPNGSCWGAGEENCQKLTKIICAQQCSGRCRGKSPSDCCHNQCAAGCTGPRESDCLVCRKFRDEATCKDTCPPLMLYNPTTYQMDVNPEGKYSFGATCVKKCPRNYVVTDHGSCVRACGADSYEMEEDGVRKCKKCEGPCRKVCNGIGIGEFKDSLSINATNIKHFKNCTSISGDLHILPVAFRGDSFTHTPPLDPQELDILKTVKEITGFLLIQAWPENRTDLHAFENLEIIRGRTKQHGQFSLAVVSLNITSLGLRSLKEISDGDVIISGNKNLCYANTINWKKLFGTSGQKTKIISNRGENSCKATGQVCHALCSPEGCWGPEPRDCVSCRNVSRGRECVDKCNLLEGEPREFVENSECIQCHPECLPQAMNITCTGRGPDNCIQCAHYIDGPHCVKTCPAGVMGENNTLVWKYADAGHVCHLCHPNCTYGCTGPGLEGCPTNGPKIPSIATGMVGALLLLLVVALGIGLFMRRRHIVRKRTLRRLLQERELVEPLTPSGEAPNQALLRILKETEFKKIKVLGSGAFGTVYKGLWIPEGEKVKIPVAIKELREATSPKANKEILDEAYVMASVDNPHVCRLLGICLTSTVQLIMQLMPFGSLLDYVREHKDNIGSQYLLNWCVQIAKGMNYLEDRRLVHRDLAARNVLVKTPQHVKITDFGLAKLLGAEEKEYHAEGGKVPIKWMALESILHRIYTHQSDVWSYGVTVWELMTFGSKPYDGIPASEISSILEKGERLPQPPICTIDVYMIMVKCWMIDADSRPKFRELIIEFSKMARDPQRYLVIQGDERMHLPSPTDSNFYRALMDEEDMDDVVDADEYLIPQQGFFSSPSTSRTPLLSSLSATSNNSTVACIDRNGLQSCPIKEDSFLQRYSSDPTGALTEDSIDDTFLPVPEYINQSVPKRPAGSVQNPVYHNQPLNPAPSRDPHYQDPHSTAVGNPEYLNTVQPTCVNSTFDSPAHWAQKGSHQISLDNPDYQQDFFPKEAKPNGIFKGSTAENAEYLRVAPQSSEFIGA

Compound | IC50 [1] | GI50 [2] | GI50 [3]
COc1cc(N2CCN(C)CC2)c(-c2ccoc2)cc1Nc1nc(Nc2ccc3nccnc3c2P(C)(C)=O)c2cc[nH]c2n1 [Example 75, (6-((2-((5-(furan-3-yl)-2-methoxy-4-(4-methylpiperazin-1-yl)phenyl)amino)-7H-pyrrolo[2,3-d]pyrimidin-4-yl)amino)quinoxalin-5-yl)dimethyl-phosphine oxide] | ≤ 0.05 µM | > 0.1 µM | > 0.1 µM
CP(C)(=O)c1c(Nc2nc(Nc3cc([N+](=O)[O-])c(N4CCC(N5CCN(C6CC6)CC5)CC4)c4c3OCCO4)nc3[nH]ccc23)ccc2nccnc12 [Example 134, (6-((2-((8-(4-(4-cyclopropyl-piperazin-1-yl)piperidin-1-yl)-7-nitro-2,3-dihydrobenzo [b][1,4]dioxin-5-yl)amino)-7H-pyrrolo[2,3-d]pyrimidin-4-yl)amino)quinoxalin-5-yl)dimethyl-phosphine oxide] | ≤ 0.05 µM | 0.05 to 0.1 µM | > 0.1 µM
COc1ccc(-c2cnn(C)c2)cc1Nc1nc(Nc2ccc3nccnc3c2P(C)(C)=O)c2cc[nH]c2n1 [Example 28, (6-((2-((2-methoxy-5-(1-methyl-1H-pyrazol-4-yl)phenyl)amino)-7H-pyrrolo[2,3-d]pyrimidin-4-yl)amino)quinoxalin-5-yl)dimethyl-phosphine oxide] | ≤ 0.05 µM | > 0.1 µM | ≤ 0.05 µM
Cn1ncc(Nc2nc(Nc3ccc4nccnc4c3P(C)(C)=O)c3cc[nH]c3n2)c1Cl [Example 137, (6-((2-((5-chloro-1-methyl-1H-pyrazol-4-yl)amino)-7H-pyrrolo[2,3-d]pyrimidin-4-yl)amino)quinoxalin-5-yl)dimethyl-phosphine oxide] | ≤ 0.05 µM | > 0.1 µM | > 0.1 µM
COc1cc(N2C[C@H]3COC[C@H]3C2)c(-c2cnn(C)c2)cc1Nc1nc(Nc2ccc3nccnc3c2P(C)(C)=O)c2cc[nH]c2n1 [Example 41, (6-((2-((2-methoxy-5-(1-methyl-1H-pyrazol-4-yl)-4-((3aR,6aS)-tetrahydro-1H-furo[3,4-c]pyrrole-5(3H)-yl)phenyl)amino)-7H-pyrrolo[2,3-d]pyrimidin-4-yl)amino)quinoxalin-5-yl)dimethyl-phosphine oxide] | ≤ 0.05 µM | > 0.1 µM | ≤ 0.05 µM
COc1cc(N2CCN(C)CC2)c(-c2cnc3ccccc3c2)cc1Nc1nc(Nc2ccc3nccnc3c2P(C)(C)=O)c2cc[nH]c2n1 [Example 71, (6-((2-((2-methoxy-4-(4-methylpiperazin-1-yl)-5-(quinolin-3-yl)phenyl)amino)-7H-pyrrolo[2,3-d]pyrimidin-4-yl)amino)quinoxalin-5-yl)dimethyl-phosphine oxide] | ≤ 0.05 µM | > 0.1 µM | > 0.1 µM
Cc1cc(Nc2nc(Nc3ccc4nccnc4c3P(C)(C)=O)c3cc[nH]c3n2)c(OCC(F)(F)F)cc1N1CCN(C)CC1 [Example 9, dimethyl (6-((2-((5-methyl-4-(4-methylpiperazin-1-yl)-2-(2,2,2-trifluoroethoxy)phenyl)amino)-7H-pyrrolo[2,3-d]pyrimidin-4-yl)amino)quinoxalin-5-yl)phosphine oxide] | ≤ 0.05 µM | > 0.1 µM | > 0.1 µM
COc1cc(N2CCN(C)CC2)c(C#N)cc1Nc1nc(Nc2ccc3nccnc3c2P(C)(C)=O)c2cc[nH]c2n1 [Example 81, 5-((4-((5-(dimethyl-phosphoryl)quinoxalin-6-yl)amino)-7H-pyrrolo[2,3-d]pyrimidin-2-yl)amino)-4-methoxy-2-(4-methylpiperazin-1-yl)benzonitrile] | ≤ 0.05 µM | > 0.1 µM | > 0.1 µM
CCc1cc(Nc2nc(Nc3ccc4nccnc4c3P(C)(C)=O)c3cc[nH]c3n2)c(OC)cc1N1CCC(N2CCN(C)CC2)CC1 [Example 55, (6-((2-((5-ethyl-2-methoxy-4-(4-(4-methylpiperazin-1-yl)piperidin-1-yl)phenyl)amino)-7H-pyrrolo[2,3-d]pyrimidin-4-yl)amino)quinoxalin-5-yl)dimethyl-phosphine oxide] | ≤ 0.05 µM | > 0.1 µM | ≤ 0.05 µM
Cn1cc(-c2cc(Nc3nc(Nc4ccc5nccnc5c4P(C)(C)=O)c4cc[nH]c4n3)c(OCC(F)(F)F)cc2N2CCC(N3CCOCC3)CC2)cn1 [Example 6, dimethyl (6-((2-((5-(1-methyl-1H-pyrazol-4-yl)-4-(4-morpholino-piperidin-1-yl)-2-(2,2,2-trifluoroethoxy)phenyl)amino)-7H-pyrrolo[2,3-d]pyrimidin-4-yl)amino)quinoxalin-5-yl)phosphine oxide] | ≤ 0.05 µM | > 0.1 µM | ≤ 0.05 µM
COc1cc(N2CCN(C)CC2)c(-c2ccncc2)cc1Nc1nc(Nc2ccc3nccnc3c2P(C)(C)=O)c2cc[nH]c2n1 [Example 70, (6-((2-((2-methoxy-4-(4-methylpiperazin-1-yl)-5-(pyridin-4-yl)phenyl)amino)-7H-pyrrolo[2,3-d]pyrimidin-4-yl)amino)quinoxalin-5-yl)dimethyl-phosphine oxide] | ≤ 0.05 µM | > 0.1 µM | > 0.1 µM
COc1cc(N2CC3(CCOCC3)C2)c(-c2cnn(C)c2)cc1Nc1nc(Nc2ccc3nccnc3c2P(C)(C)=O)c2cc[nH]c2n1 [Example 33, (6-((2-((2-methoxy-5-(1-methyl-1H-pyrazol-4-yl)-4-(7-oxa-2-azaspiro[3.5]nonane-2-yl)phenyl)amino)-7H-pyrrolo[2,3-d]pyrimidin-4-yl)amino)quinoxalin-5-yl)dimethyl-phosphine oxide] | ≤ 0.05 µM | > 0.1 µM | > 0.1 µM
COc1cc(N2CCN3CCCC[C@@H]3C2)c(-c2cnn(C)c2)cc1Nc1nc(Nc2ccc3nccnc3c2P(C)(C)=O)c2cc[nH]c2n1 [Example 43, (R)-(6-((2-((2-methoxy-5-(1-methyl-1H-pyrazol-4-yl)-4-(octahydro-2H-pyrido[1,2-alpyrazin)-2-yl)phenyl)amino)-7H-pyrrolo[2,3-d]pyrimidin-4-yl)amino)quinoxalin-5-yl)dimethyl-phosphine oxide] | ≤ 0.05 µM | 0.05 to 0.1 µM | ≤ 0.05 µM
CN1CCN(c2cc(OCC(F)(F)F)c(Nc3nc(Nc4ccc5nccnc5c4P(C)(C)=O)c4cc[nH]c4n3)cc2-c2cnn(C)c2)CC1 [Example 1, dimethyl (6-((2-((5-(1-methyl-1H-pyrazol-4-yl)-4-(4-methylpiperazin-1-yl)-2-(2,2,2-trifluoroethoxy)phenyl)amino)-7H-pyrrolo[2,3-d]pyrimidin-4-yl)amino)quinoxalin-5-yl)phosphine oxide] | ≤ 0.05 µM | > 0.1 µM | 0.05 to 0.1 µM
COc1cc(N2CC3(COC3)C2)c(-c2cnn(C)c2)cc1Nc1nc(Nc2ccc3nccnc3c2P(C)(C)=O)c2cc[nH]c2n1 [Example 29, (6-((2-((2-methoxy-5-(1-methyl-1H-pyrazol-4-yl)-4-(2-oxa-6-azaspiro[3.3]heptan-6-yl)phenyl)amino)-7H-pyrrolo[2,3-d]pyrimidin-4-yl)amino)quinoxalin-5-yl)dimethyl-phosphine oxide] | ≤ 0.05 µM | > 0.1 µM | > 0.1 µM
C=CC(=O)Nc1cc(Nc2nc(Nc3ccc4nccnc4c3P(C)(C)=O)c3cc[nH]c3n2)c2c(c1N1CCC(N3CCN(C4CC4)CC3)CC1)OCCO2 [Example 133, N-(5-(4-(4-cyclopropyl-piperazin-1-yl)piperidin-1-yl)-8-((4-((5-(dimethyl-phosphoryl)quinoxalin-6-yl)amino)-7H-pyrrolo[2,3-d]pyrimidin-2-yl)amino)-2,3-dihydrobenzo [b][1,4]dioxin-6-yl)acrylamide] | ≤ 0.05 µM | ≤ 0.05 µM | > 0.1 µM
COc1cc(N2CCC3(CC2)COC3)c(-c2cnn(C)c2)cc1Nc1nc(Nc2ccc3nccnc3c2P(C)(C)=O)c2cc[nH]c2n1 [Example 32, (6-((2-((2-methoxy-5-(1-methyl-1H-pyrazol-4-yl)-4-(2-oxa-7-azaspiro[3.5]nonane-7-yl)phenyl)amino)-7H-pyrrolo[2,3-d]pyrimidin-4-yl)amino)quinoxalin-5-yl)dimethyl-phosphine oxide] | ≤ 0.05 µM | > 0.1 µM | ≤ 0.05 µM
C=Cc1cc(Nc2nc(Nc3ccc4nccnc4c3P(C)(C)=O)c3cc[nH]c3n2)c(OC)cc1N1CCN(C)CC1 [Example 82, (6-((2-((2-methoxy-4-(4-methylpiperazin-1-yl)-5-vinylphenyl)amino)-7H-pyrrolo[2,3-d]pyrimidin-4-yl)amino)quinoxalin-5-yl)dimethyl-phosphine oxide] | ≤ 0.05 µM | > 0.1 µM | > 0.1 µM
Cn1cc(-c2cc(N3CCOCC3)c3c(c2Nc2nc(Nc4ccc5nccnc5c4P(C)(C)=O)c4cc[nH]c4n2)OCCO3)cn1 [Example 135, dimethyl (6-((2-((6-(1-methyl-1H-pyrazol-4-yl)-8-morpholino-2,3-dihydrobenzo [b][1,4]dioxin-5-yl)amino)-7H-pyrrolo[2,3-d]pyrimidin-4-yl)amino)quinoxalin-5-yl)phosphine oxide] | > 0.1 µM | > 0.1 µM | > 0.1 µM
